The values that follow come from article PMC3658936, “Comparison of cyclic RGD peptides for αvβ3 integrin detection in a rat model of myocardial infarction” (EJNMMI Research, 2013).

A word on the IC50: it is the concentration that gives 50% inhibition.

In data set [1] the test system is αvβ3 integrin. The experiment in a line: Ex vivo autoradiography of RGD tracer uptake in the myocardium (infarct vs. remote). The conditions noted are these: rat MI 1 week after LAD ligation, 90 min p.i., mean ± SD. As to the method: Permanent ligation of the left anterior descending coronary artery was performed, as previously described in 34 healthy male Lewis rats (Charles Rivers Laboratories, Sulzfeld, Germany) aged 8 to 10 weeks to induce MI. Briefly, the rats were anaesthetised with intramuscular administration of midazolam 5 mg/kg (Dormicum®, Roche; Grenzach-Wyhlen, Germany), medetomidin 0.5 mg/kg (Dormitor®, Pfizer, Karlsruhe, Germany) and fentanyl 0.05 mg/kg (Ratiopharm, Ulm, Germany) and connected to a rodent ventilator. […]
The excised hearts were frozen and embedded in Tissue Tek® mounting media (Sakura Finetek Europe B.V., Alphen aan den Rijn, the Netherlands). […] After an overnight exposure, the imaging plates were scanned with an image plate scanner (CR 35 BIO, Dürr Medical, Raytest Isotopenmeßgeräte GmbH, Germany; internal resolution of 25 μm), and the images were analysed for background-corrected count densities (PSL/mm^2) with an image analysis programme (AIDA Image Analyser, Raytest Isotopenmeßgeräte, Germany). […]
(§1) After careful co-registration of the autoradiographs and HE histological images, regional tracer uptake was analysed in the following two regions: (1) the infarcted myocardium containing the border zone as assessed after HE staining and (2) the remote, non-affected myocardium. […]

In data set [2] the test system is αvβ3 integrin. Set-up: method as in PMID 22147338, PMID 22444238. The conditions noted are these: competitive displacement assay on M21 human melanoma cells; cited from earlier work.
Data set [3] deals with αvβ3 integrin. The experiment in a line: Specificity of RGD binding: pre-injection of a blocking dose of cilengitide, autoradiography. The conditions noted are these: cilengitide 18 mg/kg 10 min prior to tracer injection. It is filed as in vivo, rat. The procedure:
The specificity of the RGD binding was studied on three rats with pre-injection of a blocking dose of cilengitide (18 mg/kg = 30.6 μmol/kg) 10 min prior to the tracer injection.
The excised hearts were frozen and embedded in Tissue Tek® mounting media (Sakura Finetek Europe B.V., Alphen aan den Rijn, the Netherlands). Serial LV short-axis cryosections of 20-μm thickness were obtained. Similar sections of muscle and spleen samples of the same rat were processed and used as negative and positive controls. After quick air drying, the sections were exposed to an imaging plate (Kodak Storage Phosphor screen GP, Eastman Kodak Company, Rochester, NY, USA). After an overnight exposure, the imaging plates were scanned with an image plate scanner (CR 35 BIO, Dürr Medical, Raytest Isotopenmeßgeräte GmbH, Germany; internal resolution of 25 μm), and the images were analysed for background-corrected count densities (PSL/mm^2) with an image analysis programme (AIDA Image Analyser, Raytest Isotopenmeßgeräte, Germany). […]
as §1

Data set [4] has as its system αvβ3 integrin. The experiment in a line: in vivo. As to conditions: for tissue uptake per volume at 1.375 h: male, Lewis, in vivo, iv, total radioactivity. As to the method:
Permanent ligation of the left anterior descending coronary artery was performed, as previously described in 34 healthy male Lewis rats (Charles Rivers Laboratories, Sulzfeld, Germany) aged 8 to 10 weeks to induce MI. Briefly, the rats were anaesthetised with intramuscular administration of midazolam 5 mg/kg (Dormicum®, Roche; Grenzach-Wyhlen, Germany), medetomidin 0.5 mg/kg (Dormitor®, Pfizer, Karlsruhe, Germany) and fentanyl 0.05 mg/kg (Ratiopharm, Ulm, Germany) and connected to a rodent ventilator. The heart was exposed through a left lateral thoracotomy of the fourth intercostal space, and the left anterior descending (LAD) artery was ligated near to its origin (2 to 3 mm from the tip of the left atrium). Two rats underwent sham operation, which consisted of the same procedures except that the LAD artery suture was not tightened. The rats were treated with 0.05 mg/kg buprenorphin (Temgesic®, Essex, Germany) and 4 mg/kg carprofen (Rimadyl, Pfizer, Germany) for 72 h post surgery. The study protocols were approved by the regional governmental commission for animal protection (Regierung von Oberbayern, Munich, Germany).
A subset of animals (n = 7) was imaged using a small-animal PET/CT scanner (Inveon, Siemens Medical Solutions, Knoxville, TN, USA). The rats were anaesthetised using 1.5% isoflurane. Breathing was monitored and temperature was maintained using a heating pad throughout the imaging procedures. The rats were injected with 37 MBq of [^13N]NH3 via tail a vein catheter, and perfusion images were acquired for 15 min starting at the time of injection. A CT scan was performed for anatomical localisation. The animals were left anaesthetised in the scanner, and 60 min later, the animals were injected with either ^68Ga-NODAGA-RGD (72 MBq, n = 4) or ^68Ga-TRAP(RGD)3 (63 MBq, n = 3) via the tail vein. […]
The ^68Ga- and ^13N-PET images were fused, and the uptake was visualised using the Inveon Research Workplace (Siemens, Knoxville, TN, USA). […] The mean radioactivity concentration within the ROI was expressed as the percentage of injected dose per cubic centimetre (% ID/cc).

The nature of data set [5]: Ex vivo biodistribution in tissues by gamma counting. Set-up: species or system rat. As to conditions: for tissue uptake at 1.5 h: Lewis, rat, in vivo, total radioactivity. As to the method: Rats were anesthetised using 1.5% isoflurane and were injected via tail vein catheter with ^18F-galacto-RGD (37 MBq, n = 9), ^68Ga-NODAGA-RGD (69 MBq, n = 10) or of ^68Ga-TRAP(RGD)3 (54 MBq, n = 12). Rats were kept under anaesthesia in a warmed bed until euthanized after 90 min using intravenous injection of 150 mg/kg of pentobarbiturate (Narcoren®, Merial, Rohrdorf, Germany). The heart was excised and cut transaxially at the location of the infarct. The apical part, containing both infarct and non-affected remote myocardium, was processed for sectioning for autoradiography as described below.
Tissue samples (remote myocardium, apical part of myocardium, femoral muscle, operation wound and the connective tissue contralateral to the wound, spleen, liver, kidney, urine and blood) were dissected, and the weights of the tissue, urine, blood and serum samples were measured and their activity was detected using a gamma counter (1480 Wizard, PerkinElmer Wallac, Turku, Finland).

Where two headings read alike, the source gives them in different places.

In the case of “^18F-galacto-cyclo(RGDfK) [^18F-galacto-RGD, reference compound]”, the “infarct vs. remote PSL/mm2 uptake ratio” value in the data set on αvβ3 integrin [1] is 4.7 ± 0.8. The IC50 in the data set on αvβ3 integrin [2] was 319 nM.

Regarding cilengitide, the “effect of pre-injection of high-dose cilengitide on tracer uptake” value in the data set on αvβ3 integrin [3] is “reduced the uptake in the myocardium and also in the spleen”.

For `N=C(N)NCCC[C@@H]1NC(=O)[C@H](CCCCNC(=O)CCC(C(=O)O)N2CCN(CC(=O)O)CCN(CC(=O)O)CC2)NC(=O)[C@@H](Cc2ccc(O)cc2)NC(=O)[C@H](CC(=O)O)NC(=O)CNC1=O` (stereo partly shown) [^68Ga-NODAGA-RGD, ^68Ga-NODAGA-cyclo(RGDyK), metal not drawn], the tissue uptake per volume at 1.375 h in the data set with αvβ3 integrin [4] (rat) was found to be 0.17 ± 0.03 %ID/mL. Also, the tissue uptake at 1.5 h came to 0.156 ± 0.06 %ID/g in data set [5] (Biodistribution: Apical myocardium); 0.058 ± 0.02 %ID/g in data set [5] (Biodistribution: Blood); 0.11 ± 0.05 %ID/g in data set [5] (Biodistribution: Connective tissue); 1.1 ± 0.7 %ID/g in data set [5] (Biodistribution: Kidney); 0.23 ± 0.17 %ID/g in data set [5] (Biodistribution: Liver); 0.035 ± 0.01 %ID/g in data set [5] (Biodistribution: Muscle). The tissue uptake at 1.5 h in data set [5] (Biodistribution: Remote myocardium) came out at 0.071 ± 0.03 %ID/g; in data set [5] (Biodistribution: Serum), 0.094 ± 0.05 %ID/g; in data set [5] (Biodistribution: Spleen), 0.246 ± 0.16 %ID/g; in data set [5] (Biodistribution: Urine), 20.2 ± 6.4 %ID/g; in data set [5] (Biodistribution: Wound), 0.27 ± 0.24 %ID/g.

`N=C(N)NCCC[C@@H]1NC(=O)[C@H](CCCCNC(=O)CCP(=O)(O)CN2CCN(CP(=O)(O)CCC(=O)NCCCC[C@@H]3NC(=O)[C@@H](Cc4ccccc4)NC(=O)[C@H](CC(=O)O)NC(=O)CNC(=O)[C@H](CCCNC(=N)N)NC3=O)CCN(CP(=O)(O)CCC(=O)NCCCC[C@@H]3NC(=O)[C@@H](Cc4ccccc4)NC(=O)[C@H](CC(=O)O)NC(=O)CNC(=O)[C@H](CCCNC(=N)N)NC3=O)CC2)NC(=O)[C@@H](Cc2ccccc2)NC(=O)[C@H](CC(=O)O)NC(=O)CNC1=O` [^68Ga-TRAP(RGD)3, ^68Ga-TRAP(cyclo(RGDfK))3, metal not drawn]: the “infarct vs. remote PSL/mm2 uptake ratio” value in the data set on αvβ3 integrin [1] is reported as 4.1 ± 0.7. Moreover, the “infarct-to-remote ratio (PET)” value in the data set with αvβ3 integrin [4] (PET image-derived, rat MI 1 week) was 1.9. Further, in the data set on αvβ3 integrin [4] (PET, 82.5 min after injection, rat MI 1 week, read-out: image-derived average uptake in the myocardium, infarct area), the tissue uptake per volume at 1.375 h turned out to be 0.25 ± 0.02 %ID/mL. For the same molecule, the tissue uptake at 1.5 h came to 0.353 ± 0.1 %ID/g in data set [5] (90 min p.i., mean ± SD, contains both infarct and remote areas, read-out: Biodistribution: Apical myocardium); 0.19 ± 0.08 %ID/g in data set [5] (90 min p.i., mean ± SD, contralateral to the wound, read-out: Biodistribution: Connective tissue); 0.101 ± 0.07 %ID/g in data set [5] (90 min p.i., mean ± SD, read-out: Biodistribution: Blood); 1.45 ± 0.51 %ID/g in data set [5] (90 min p.i., mean ± SD, read-out: Biodistribution: Kidney); 0.524 ± 0.61 %ID/g in data set [5] (90 min p.i., mean ± SD, read-out: Biodistribution: Liver); 0.066 ± 0.03 %ID/g in data set [5] (90 min p.i., mean ± SD, read-out: Biodistribution: Muscle). In addition, the tissue uptake at 1.5 h is 0.154 ± 0.09 %ID/g in data set [5] (90 min p.i., mean ± SD, read-out: Biodistribution: Remote myocardium); 0.166 ± 0.12 %ID/g in data set [5] (90 min p.i., mean ± SD, read-out: Biodistribution: Serum); 0.415 ± 0.3 %ID/g in data set [5] (90 min p.i., mean ± SD, read-out: Biodistribution: Spleen); 35.1 ± 22.4 %ID/g in data set [5] (90 min p.i., mean ± SD, read-out: Biodistribution: Urine); 0.256 ± 0.12 %ID/g in data set [5] (90 min p.i., mean ± SD, read-out: Biodistribution: Wound). Besides, in data set [5] (gamma counting, apical part vs. remote myocardium tissue sample), the apical-to-remote ratio was 2.1. Further, the 50% inhibitory concentration (IC50) in the data set on αvβ3 integrin [2] was 44 nM.
